pIC50: −log10 of the molar value.
Columns and labels:
RAW264.7 [1] = assay: Antiinflammatory activity in mouse RAW264.7 cells assessed as inhibition of LPS-induced TNF-alpha production after 6 hrs by ELISA; type: functional, cell-based; settings: for pIC50: RAW264.7, 6 h
RAW264.7 [2] = assay: Inhibition of NF-kappaB transcriptional activity in LPS-stimulated mouse RAW264.7 cells by dual luciferase reporter assay relative to renilla luciferase activity; type: cell-based
RAW264.7 [3] = assay: Cytotoxicity against mouse RAW264.7 cells; type: cell-based
RAW264.7 [4] = assay: Antiinflammatory activity in mouse RAW264.7 cells assessed as inhibition of LPS-induced TNF-alpha production at 10 uM after 6 hrs by ELISA; type: functional; settings: RAW264.7, 6 h

Row | Structure (SMILES) | inhibition (RAW264.7 [1]) | pIC50 (RAW264.7 [1]) | fold change (FC) (RAW264.7 [2]) | Activity (RAW264.7 [3]) | inhibition at 10 µM (RAW264.7 [4]) [%]
1 | O=C1CCC[C@@H]2[C@H]3CCCN4CCC[C@@H](CN12)[C@@H]34 [MATRINE] | Dose-dependent effect | < 3.70 | 5.11 | Non-toxic | 
2 | O=C1C=CC[C@@H]2[C@H]3CCCN4CCC[C@@H](CN12)[C@@H]34 [SOPHOCARPINE] | Dose-dependent effect | < 3.70 | 3.47 | Non-toxic | 
3 | OCCN[C@@H]1CC(=S)N2C[C@@H]3CCCN4CCC[C@@H]([C@H]34)[C@H]2C1 | Dose-dependent effect | 4.41 | 4.85 | Non-toxic | 29.3
4 | S=C1C[C@@H](NCc2ccccc2)C[C@@H]2[C@H]3CCCN4CCC[C@@H](CN12)[C@@H]34 | Dose-dependent effect | 4.21 | 8.39 | Non-toxic | 33.9
5 | CC(C)N[C@@H]1CC(=S)N2C[C@@H]3CCCN4CCC[C@@H]([C@H]34)[C@H]2C1 | Dose-dependent effect | 4.28 | 6.56 | Non-toxic | 24
6 | CCCN[C@@H]1CC(=S)N2C[C@@H]3CCCN4CCC[C@@H]([C@H]34)[C@H]2C1 | Dose-dependent effect | 4.03 | 3.4 | Non-toxic | 9.6
7 | OCCCN[C@@H]1CC(=S)N2C[C@@H]3CCCN4CCC[C@@H]([C@H]34)[C@H]2C1 | Dose-dependent effect | 4.27 | 3.14 | Non-toxic | 22.8
8 | N[C@@H]1CC(=O)N2C[C@@H]3CCCN4CCC[C@@H]([C@H]34)[C@H]2C1 | Dose-dependent effect | < 3.70 | 6.54 | Non-toxic | 
9 | OCCOCCN[C@@H]1CC(=S)N2C[C@@H]3CCCN4CCC[C@@H]([C@H]34)[C@H]2C1 | Dose-dependent effect | 4.24 | 4.75 | Non-toxic | 8.4
10 | S=C1C[C@@H](NCC2CC2)C[C@@H]2[C@H]3CCCN4CCC[C@@H](CN12)[C@@H]34 | Dose-dependent effect | 3.92 | 7.83 | Non-toxic | 16.2
11 | CCN[C@@H]1CC(=S)N2C[C@@H]3CCCN4CCC[C@@H]([C@H]34)[C@H]2C1 | Dose-dependent effect | 4.63 | 1.96 | Non-toxic | 41.5
12 | CN[C@@H]1CC(=S)N2C[C@@H]3CCCN4CCC[C@@H]([C@H]34)[C@H]2C1 | Dose-dependent effect | 4.03 | 3.69 | Non-toxic | 9.1
13 | C=CCN[C@@H]1CC(=S)N2C[C@@H]3CCCN4CCC[C@@H]([C@H]34)[C@H]2C1 | Dose-dependent effect | 5.03 | 1.47 | Non-toxic | 52.5

— ChEMBL document CHEMBL1287731, “Synthesis and in vitro inhibitory activity of matrine derivatives towards pro-inflammatory cytokines” (Bioorg Med Chem Lett, 2010)
